Assay results reported in ChEMBL document CHEMBL1201862, “PubChem BioAssay data set” (2004).
The source made the active and inactive calls.

Legend:
Assay type in all cases: functional
[1] = target: Tyrosine-protein kinase BTK (Homo sapiens, UniProt Q06187)
[2] = target: Serine/threonine-protein kinase D3 (Homo sapiens, UniProt O94806);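 also: determined within a kinase panel screen, with PRKCN as the panel member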
[3] = target: Mitogen-activated protein kinase kinase kinase kinase 2 (Homo sapiens, UniProt Q12851);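 also: measured as one member of a kinome-wide kinase panel, with MAP4K2 as the panel entry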
Aurora kinase B = Aurora kinase B (Homo sapiens, UniProt Q96GD4)
[4] = target: Tyrosine-protein kinase ABL1 (Homo sapiens, UniProt P00519)
[5] = target: Calcium/calmodulin-dependent protein kinase type II subunit alpha (Homo sapiens, UniProt Q9UQM7); test: Navigating the Kinome. Panel member name: CAMK2A
[6] = target: Platelet-derived growth factor receptor alpha (Homo sapiens, UniProt P16234); test: Navigating the Kinome. Panel member name: PDGFRA
[7] = target: Hepatocyte growth factor receptor (Homo sapiens, UniProt P08581);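 also: kinase panel profiling across the kinome, with MET as the panel member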
Activated CDC42 kinase 1 = Activated CDC42 kinase 1 (Homo sapiens, UniProt Q07912); test: Navigating the Kinome. Panel member name: ACK1
[8] = target: Dual specificity mitogen-activated protein kinase kinase 1 (Homo sapiens, UniProt Q02750); test: Navigating the Kinome. Panel member name: MAP2K1
[9] = target: Serine/threonine-protein kinase TBK1 (Homo sapiens, UniProt Q9UHD2); test: Navigating the Kinome. Panel member name: TBK1
[10] = target: Glycogen synthase kinase-3 alpha (Homo sapiens, UniProt P49840);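 also: GSK3A result taken from a broad kinome-wide kinase panel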
[11] = target: Tyrosine-protein kinase Fyn (Homo sapiens, UniProt P06241)
[12] = target: Cyclin-dependent kinase 9 (Homo sapiens, UniProt P50750);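 also: value from the CDK9 entry of a kinome-spanning kinase panel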
[13] = target: Macrophage-stimulating protein receptor (Homo sapiens, UniProt Q04912); test: Navigating the Kinome. Panel member name: MST1R
[14] = target: Protein kinase C theta type (Homo sapiens, UniProt Q04759); test: Navigating the Kinome. Panel member name: PRKCQ
[15] = target: Mitogen-activated protein kinase kinase kinase kinase 4 (Homo sapiens, UniProt O95819)
[16] = target: Cyclin-dependent kinase 8 (Homo sapiens, UniProt P49336); test: Navigating the Kinome. Panel member name: CDK8
[17] = target: Leukocyte tyrosine kinase receptor (Homo sapiens, UniProt P29376); test: Navigating the Kinome. Panel member name: LTK
[18] = target: cAMP-dependent protein kinase catalytic subunit PRKX (Homo sapiens, UniProt P51817)
[19] = target: Dual specificity tyrosine-phosphorylation-regulated kinase 1A (Homo sapiens, UniProt Q13627);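 also: measured against DYRK1A as one member of a broad kinome profiling panel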
[20] = target: Receptor-type tyrosine-protein kinase FLT3 (Homo sapiens, UniProt P36888);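 also: FLT3 was tested as one member of a kinome-wide kinase panel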
[21] = target: Insulin-like growth factor 1 receptor (Homo sapiens, UniProt P08069); test: Navigating the Kinome. Panel member name: IGF1R
[22] = target: Serine/threonine-protein kinase pim-1 (Homo sapiens, UniProt P11309)
[23] = target: ALK tyrosine kinase receptor (Homo sapiens, UniProt Q9UM73);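 also: ALK tested as one member of a kinase panel screen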
[24] = target: High affinity nerve growth factor receptor (Homo sapiens, UniProt P04629);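 also: NTRK1 tested as one member of a kinome-wide profiling panel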
[25] = target: Vascular endothelial growth factor receptor 1 (Homo sapiens, UniProt P17948);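 also: measured within a kinome-wide profiling panel, FLT1 as the panel member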
[26] = target: Glycogen synthase kinase-3 beta (Homo sapiens, UniProt P49841);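 also: value comes from a broad kinome profiling panel, with GSK3B as the panel member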
Activin receptor type-1 = Activin receptor type-1 (Homo sapiens, UniProt Q04771); test: Navigating the Kinome. Panel member name: ACVR1
[27] = target: Dual specificity protein kinase CLK2 (Homo sapiens, UniProt P49760)
[28] = target: Serine/threonine-protein kinase Nek2 (Homo sapiens, UniProt P51955)
[29] = target: Inhibitor of nuclear factor kappa-B kinase subunit epsilon (Homo sapiens, UniProt Q14164); test: Navigating the Kinome. Panel member name: IKBKE
LIM domain kinase 1 = LIM domain kinase 1 (Homo sapiens, UniProt P53667); test: Navigating the Kinome. Panel member name: LIMK1
[30] = target: 5'-AMP-activated protein kinase catalytic subunit alpha-1 (Homo sapiens, UniProt Q13131)
[31] = target: cAMP-dependent protein kinase catalytic subunit alpha (Homo sapiens, UniProt P17612)
[32] = target: Cyclin-dependent kinase 5 (Homo sapiens, UniProt Q00535);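 also: CDK5 measured as one member of a kinase profiling panel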
[33] = target: Proto-oncogene tyrosine-protein kinase receptor Ret (Homo sapiens, UniProt P07949);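 also: measured within a kinome-wide profiling panel, RET as the panel member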
Aurora kinase A = Aurora kinase A (Homo sapiens, UniProt O14965);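 also: value from the Navigating the Kinome kinase panel profiling, panel entry STK6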
[34] = target: Cyclin-dependent kinase 7 (Homo sapiens, UniProt P50613);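 also: value comes from a kinome-wide kinase profiling panel in which CDK7 is one member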
[35] = target: Leucine-rich repeat serine/threonine-protein kinase 2 (Homo sapiens, UniProt Q5S007);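 also: value from a broad kinome-wide panel profiling study in which LRRK2 was one of the kinases tested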
[36] = target: Rho-associated protein kinase 1 (Homo sapiens, UniProt Q13464);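 also: measured within a broad kinome-wide panel profiling many kinases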
[37] = target: Mitogen-activated protein kinase 8 (Homo sapiens, UniProt P45983);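 also: value comes from one member of a kinome-wide kinase profiling panel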
[38] = target: Death-associated protein kinase 3 (Homo sapiens, UniProt O43293);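 also: measured as one member of a kinome-wide profiling panel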
[39] = target: Serine/threonine-protein kinase Chk1 (Homo sapiens, UniProt O14757);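 also: measured as one member of a kinome-wide kinase profiling panel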
[40] = target: Serine/threonine-protein kinase PAK 4 (Homo sapiens, UniProt O96013);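 also: value obtained within a kinome profiling panel in which PAK4 was one of the panel members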
[41] = target: BDNF/NT-3 growth factors receptor (Homo sapiens, UniProt Q16620);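 also: NTRK2 measured as one member of a broad kinome-wide kinase profiling panel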
[42] = target: Casein kinase I isoform alpha (Homo sapiens, UniProt P48729)
[43] = target: Tyrosine-protein kinase receptor TYRO3 (Homo sapiens, UniProt Q06418);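 also: TYRO3 value obtained as one member of a kinome-wide profiling panel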
[44] = target: Macrophage colony-stimulating factor 1 receptor (Homo sapiens, UniProt P07333);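 also: value comes from the Navigating the Kinome screening panel, CSF1R member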
[45] = target: Dual specificity tyrosine-phosphorylation-regulated kinase 1B (Homo sapiens, UniProt Q9Y463); test: Navigating the Kinome. Panel member name: DYRK1B
[46] = target: Dual specificity protein kinase CLK4 (Homo sapiens, UniProt Q9HAZ1)
[47] = target: Fibroblast growth factor receptor 1 (Homo sapiens, UniProt P11362)
[48] = target: G protein-coupled receptor kinase 5 (Homo sapiens, UniProt P34947); test: Navigating the Kinome. Panel member name: GPRK5
[49] = target: Homeodomain-interacting protein kinase 2 (Homo sapiens, UniProt Q9H2X6);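 also: measured within a kinome-wide kinase profiling panel, HIPK2 being one panel member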
[50] = target: Tyrosine-protein kinase JAK3 (Homo sapiens, UniProt P52333)
[51] = target: Serine/threonine-protein kinase 17A (Homo sapiens, UniProt Q9UEE5)
[52] = target: Protein kinase C gamma type (Homo sapiens, UniProt P05129)
[53] = target: Vascular endothelial growth factor receptor 2 (Homo sapiens, UniProt P35968)
[54] = target: Mast/stem cell growth factor receptor Kit (Homo sapiens, UniProt P10721);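 also: KIT entry within a kinase panel assay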
[55] = target: Fibroblast growth factor receptor 3 (Homo sapiens, UniProt P22607)
[56] = target: Homeodomain-interacting protein kinase 4 (Homo sapiens, UniProt Q8NE63)
[57] = target: Casein kinase II subunit alpha (Homo sapiens, UniProt P68400)
[58] = target: Tyrosine-protein kinase receptor UFO (Homo sapiens, UniProt P30530)
[59] = target: Vascular endothelial growth factor receptor 3 (Homo sapiens, UniProt P35916);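 also: value from a kinome-wide profiling panel, with FLT4 as the panel member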
[60] = target: Tyrosine-protein kinase Blk (Homo sapiens, UniProt P51451);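 also: obtained as one member of a kinome-wide kinase assay panel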
[61] = target: Tyrosine-protein kinase JAK2 (Homo sapiens, UniProt O60674);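 also: JAK2 tested as one member of a kinase panel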

Sequence of Tyrosine-protein kinase receptor TYRO3 (Q06418 whole entry): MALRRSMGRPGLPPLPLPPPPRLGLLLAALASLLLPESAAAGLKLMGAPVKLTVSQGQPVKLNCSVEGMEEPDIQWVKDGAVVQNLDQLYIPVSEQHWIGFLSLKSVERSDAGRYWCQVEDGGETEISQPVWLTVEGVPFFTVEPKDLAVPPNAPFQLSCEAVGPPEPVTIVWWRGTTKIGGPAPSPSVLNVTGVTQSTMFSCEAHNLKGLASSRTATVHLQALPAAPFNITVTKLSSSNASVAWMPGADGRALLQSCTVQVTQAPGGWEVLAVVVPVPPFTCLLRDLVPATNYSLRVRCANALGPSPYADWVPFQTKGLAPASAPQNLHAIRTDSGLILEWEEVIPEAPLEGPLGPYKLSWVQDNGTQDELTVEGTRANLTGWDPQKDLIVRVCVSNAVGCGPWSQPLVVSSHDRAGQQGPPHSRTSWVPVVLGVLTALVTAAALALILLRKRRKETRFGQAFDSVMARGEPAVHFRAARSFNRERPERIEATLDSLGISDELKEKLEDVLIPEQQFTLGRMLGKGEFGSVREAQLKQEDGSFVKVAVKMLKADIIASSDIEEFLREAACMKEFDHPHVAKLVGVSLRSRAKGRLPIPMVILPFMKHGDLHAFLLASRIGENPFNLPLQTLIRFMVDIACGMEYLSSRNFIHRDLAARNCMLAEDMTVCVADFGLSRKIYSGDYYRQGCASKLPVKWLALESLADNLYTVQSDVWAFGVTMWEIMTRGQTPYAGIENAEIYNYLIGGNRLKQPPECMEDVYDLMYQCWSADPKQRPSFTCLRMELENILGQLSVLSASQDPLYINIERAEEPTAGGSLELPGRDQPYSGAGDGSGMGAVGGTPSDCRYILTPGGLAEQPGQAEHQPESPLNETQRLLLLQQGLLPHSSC
Sequence of Death-associated protein kinase 3 (O43293 whole entry): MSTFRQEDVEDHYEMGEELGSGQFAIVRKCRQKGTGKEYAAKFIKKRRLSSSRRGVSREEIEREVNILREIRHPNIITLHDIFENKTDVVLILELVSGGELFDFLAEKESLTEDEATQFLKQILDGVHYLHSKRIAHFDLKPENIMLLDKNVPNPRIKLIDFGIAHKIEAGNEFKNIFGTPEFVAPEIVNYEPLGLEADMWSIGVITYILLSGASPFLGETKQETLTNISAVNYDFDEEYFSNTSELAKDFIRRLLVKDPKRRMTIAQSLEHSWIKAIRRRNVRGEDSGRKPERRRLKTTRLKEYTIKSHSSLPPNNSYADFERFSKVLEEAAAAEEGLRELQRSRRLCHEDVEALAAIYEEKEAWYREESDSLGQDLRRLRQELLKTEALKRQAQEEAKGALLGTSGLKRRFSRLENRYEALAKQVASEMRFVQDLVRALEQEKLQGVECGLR
Sequence of Vascular endothelial growth factor receptor 1 (P17948 whole entry): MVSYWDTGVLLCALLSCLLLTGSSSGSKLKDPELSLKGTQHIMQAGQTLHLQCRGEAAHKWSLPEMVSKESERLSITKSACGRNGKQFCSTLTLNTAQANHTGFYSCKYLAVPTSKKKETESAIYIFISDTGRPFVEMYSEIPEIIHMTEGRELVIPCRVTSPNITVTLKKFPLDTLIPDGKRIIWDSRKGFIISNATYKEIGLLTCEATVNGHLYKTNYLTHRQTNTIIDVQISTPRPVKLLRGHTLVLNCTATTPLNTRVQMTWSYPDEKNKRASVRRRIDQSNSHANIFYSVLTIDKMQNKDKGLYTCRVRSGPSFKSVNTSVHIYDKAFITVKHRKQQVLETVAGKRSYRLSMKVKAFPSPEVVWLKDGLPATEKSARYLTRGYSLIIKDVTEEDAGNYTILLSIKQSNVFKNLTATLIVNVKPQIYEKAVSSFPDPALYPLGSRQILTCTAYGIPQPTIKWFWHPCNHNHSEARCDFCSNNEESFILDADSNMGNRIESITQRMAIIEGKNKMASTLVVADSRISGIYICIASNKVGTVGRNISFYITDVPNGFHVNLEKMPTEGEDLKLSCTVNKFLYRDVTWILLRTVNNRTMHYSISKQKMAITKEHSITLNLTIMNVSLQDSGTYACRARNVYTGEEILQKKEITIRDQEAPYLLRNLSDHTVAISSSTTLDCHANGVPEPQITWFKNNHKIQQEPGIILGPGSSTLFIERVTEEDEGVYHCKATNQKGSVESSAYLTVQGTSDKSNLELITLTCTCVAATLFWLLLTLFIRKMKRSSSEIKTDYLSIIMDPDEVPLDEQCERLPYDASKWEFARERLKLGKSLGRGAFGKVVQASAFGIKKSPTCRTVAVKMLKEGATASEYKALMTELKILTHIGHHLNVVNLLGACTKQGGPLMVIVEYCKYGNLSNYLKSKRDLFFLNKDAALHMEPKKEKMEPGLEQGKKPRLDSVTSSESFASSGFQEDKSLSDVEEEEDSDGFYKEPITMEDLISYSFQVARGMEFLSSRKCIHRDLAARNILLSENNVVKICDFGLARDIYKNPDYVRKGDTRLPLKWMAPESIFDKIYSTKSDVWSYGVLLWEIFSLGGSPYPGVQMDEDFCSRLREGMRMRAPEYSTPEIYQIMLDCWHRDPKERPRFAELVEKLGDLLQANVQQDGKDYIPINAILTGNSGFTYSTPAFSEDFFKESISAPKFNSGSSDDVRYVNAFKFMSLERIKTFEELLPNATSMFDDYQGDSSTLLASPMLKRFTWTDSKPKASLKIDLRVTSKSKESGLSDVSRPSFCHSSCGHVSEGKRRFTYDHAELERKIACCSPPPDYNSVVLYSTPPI
Sequence of Platelet-derived growth factor receptor alpha (P16234 whole entry): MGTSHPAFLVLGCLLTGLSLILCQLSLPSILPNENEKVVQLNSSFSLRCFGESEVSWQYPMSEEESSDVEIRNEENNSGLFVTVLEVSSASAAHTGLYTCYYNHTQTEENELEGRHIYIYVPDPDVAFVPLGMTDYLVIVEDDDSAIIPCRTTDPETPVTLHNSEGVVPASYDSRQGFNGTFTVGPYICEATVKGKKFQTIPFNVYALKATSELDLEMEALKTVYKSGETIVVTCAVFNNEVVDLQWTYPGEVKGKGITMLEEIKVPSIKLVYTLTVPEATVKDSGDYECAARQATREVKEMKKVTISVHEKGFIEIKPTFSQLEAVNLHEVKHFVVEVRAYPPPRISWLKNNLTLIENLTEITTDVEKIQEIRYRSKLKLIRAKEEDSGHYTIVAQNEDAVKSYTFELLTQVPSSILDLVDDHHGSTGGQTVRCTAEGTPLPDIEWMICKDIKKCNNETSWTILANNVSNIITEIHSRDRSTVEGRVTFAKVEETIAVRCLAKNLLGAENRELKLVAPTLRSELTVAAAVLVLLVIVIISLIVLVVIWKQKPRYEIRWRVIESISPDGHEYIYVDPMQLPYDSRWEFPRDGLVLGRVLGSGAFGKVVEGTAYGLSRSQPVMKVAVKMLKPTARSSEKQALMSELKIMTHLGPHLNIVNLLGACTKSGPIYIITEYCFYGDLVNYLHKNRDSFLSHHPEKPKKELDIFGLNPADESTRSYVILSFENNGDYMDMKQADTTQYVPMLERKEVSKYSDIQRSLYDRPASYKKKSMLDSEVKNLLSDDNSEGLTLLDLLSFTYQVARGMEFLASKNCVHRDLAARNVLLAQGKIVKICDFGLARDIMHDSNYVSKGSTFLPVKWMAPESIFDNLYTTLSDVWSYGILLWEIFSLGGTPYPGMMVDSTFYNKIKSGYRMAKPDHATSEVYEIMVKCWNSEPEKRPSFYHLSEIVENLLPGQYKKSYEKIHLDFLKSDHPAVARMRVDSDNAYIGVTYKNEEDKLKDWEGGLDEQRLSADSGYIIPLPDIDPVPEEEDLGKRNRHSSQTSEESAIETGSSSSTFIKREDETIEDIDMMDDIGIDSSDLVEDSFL
Sequence of Dual specificity tyrosine-phosphorylation-regulated kinase 1B (Q9Y463 whole entry): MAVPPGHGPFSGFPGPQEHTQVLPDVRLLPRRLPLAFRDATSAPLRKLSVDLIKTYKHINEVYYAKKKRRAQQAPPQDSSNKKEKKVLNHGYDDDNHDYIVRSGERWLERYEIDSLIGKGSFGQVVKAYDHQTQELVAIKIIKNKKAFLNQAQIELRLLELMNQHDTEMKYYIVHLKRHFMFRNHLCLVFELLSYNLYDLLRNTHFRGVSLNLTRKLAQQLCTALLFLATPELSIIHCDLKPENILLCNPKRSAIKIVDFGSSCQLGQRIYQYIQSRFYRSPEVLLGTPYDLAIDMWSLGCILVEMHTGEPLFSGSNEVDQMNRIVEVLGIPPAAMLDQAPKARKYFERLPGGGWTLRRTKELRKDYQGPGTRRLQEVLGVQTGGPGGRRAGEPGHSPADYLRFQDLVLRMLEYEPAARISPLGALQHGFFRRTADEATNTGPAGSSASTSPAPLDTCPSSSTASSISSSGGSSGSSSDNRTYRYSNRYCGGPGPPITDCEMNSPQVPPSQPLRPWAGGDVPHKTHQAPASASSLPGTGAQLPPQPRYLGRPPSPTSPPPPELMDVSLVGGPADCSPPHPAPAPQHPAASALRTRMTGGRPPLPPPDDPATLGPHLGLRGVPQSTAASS
Sequence of Calcium/calmodulin-dependent protein kinase type II subunit alpha (Q9UQM7 whole entry): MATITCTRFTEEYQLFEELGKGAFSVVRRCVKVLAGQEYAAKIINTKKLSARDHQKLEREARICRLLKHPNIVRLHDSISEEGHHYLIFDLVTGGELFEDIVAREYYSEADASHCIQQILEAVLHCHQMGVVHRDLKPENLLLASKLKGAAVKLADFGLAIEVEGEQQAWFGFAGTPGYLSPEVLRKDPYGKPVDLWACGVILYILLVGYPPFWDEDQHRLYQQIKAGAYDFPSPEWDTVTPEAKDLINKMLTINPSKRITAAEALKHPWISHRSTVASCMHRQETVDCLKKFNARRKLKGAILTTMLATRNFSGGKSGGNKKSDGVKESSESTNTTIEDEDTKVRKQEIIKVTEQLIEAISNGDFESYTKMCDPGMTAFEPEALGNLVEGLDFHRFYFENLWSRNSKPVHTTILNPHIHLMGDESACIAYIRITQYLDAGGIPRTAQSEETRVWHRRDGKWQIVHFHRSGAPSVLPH

Nc1cc(=O)[nH]n1-c1ccccn1
Ki [1]: 31.6 µM (active)
Ki [2]: 10 µM (active)
Ki [3]: 10 µM (active)
Ki (Aurora kinase B): 25.1 µM (active)
Ki [4]: 12.6 µM (active)
Ki [5]: 15.8 µM (active)
Ki [6]: 12.6 µM (active)
Ki [7]: 6.31 µM (active)
Ki (Activated CDC42 kinase 1): 50.1 µM (active)
Ki [8]: 79.4 µM (active)
Ki [9]: 7.94 µM (active)
Ki [10]: 31.6 µM (active)
Ki [11]: 50.1 µM (active)
Ki [12]: 3.98 µM (active)
Ki [13]: 50.1 µM (active)
Ki [14]: 20 µM (active)
Ki [15]: 63.1 µM (active)
Ki [16]: 5.01 µM (active)
Ki [17]: 3.98 µM (active)
Ki [18]: 10 µM (active)
Ki [19]: 2 µM (active)
Ki [20]: 15.8 µM (active)
Ki [21]: 79.4 µM (active)
Ki [22]: 50.1 µM (active)
Ki [23]: 31.6 µM (active)
Ki [24]: 15.8 µM (active)
Ki [25]: 20 µM (active)
Ki [26]: 20 µM (active)
Ki (Activin receptor type-1): 15.8 µM (active)
Ki [27]: 50.1 µM (active)
Ki [28]: 3.16 µM (active)
Ki [29]: 15.8 µM (active)
Ki (LIM domain kinase 1): 1.58 µM (active)
Ki [30]: 15.8 µM (active)
Ki [31]: 15.8 µM (active)
Ki [32]: 6.31 µM (active)
Ki [33]: 12.6 µM (active)
Ki (Aurora kinase A): 7.94 µM (active)
Ki [34]: 20 µM (active)
Ki [35]: 6.31 µM (active)
Ki [36]: 79.4 µM (active)
Ki [37]: 31.6 µM (active)
Ki [38]: 20 µM (active)
Ki [39]: 2.51 µM (active)
Ki [40]: 63.1 µM (active)
Ki [41]: 100 µM (active)
Ki [42]: 20 µM (active)
Ki [43]: 7.94 µM (active)
Ki [44]: 15.8 µM (active)
Ki [45]: 3.98 µM (active)
Ki [46]: 0.501 µM (active)
Ki [47]: 31.6 µM (active)

CN1CCN(c2ccc(C(=O)Nc3n[nH]c4ccc(Cc5cc(F)cc(F)c5)cc34)c(NC3CCOCC3)c2)CC1 [ENTRECTINIB]
Ki [48]: 2.51 µM (active)
Ki [49]: 1.58 µM (active)
Ki [5]: > 3.98 µM (inactive)
Ki [6]: > 2.51 µM (inactive)
Ki [50]: 0.501 µM (active)
Ki [16]: > 3.98 µM (inactive)
Ki [17]: 0.00158 µM (active)
Ki [51]: > 3.16 µM (inactive)
Ki [52]: 0.631 µM (active)
Ki [53]: 0.398 µM (active)
Ki [54]: 0.158 µM (active)
Ki [55]: 0.158 µM (active)
Ki [25]: 0.794 µM (active)
Ki [56]: > 7.94 µM (inactive)
Ki [57]: > 6.31 µM (inactive)
Ki [35]: 2.51 µM (active)
Ki [58]: 0.0398 µM (active)
Ki [59]: 0.2 µM (active)
Ki [38]: 2.51 µM (active)
Ki [43]: > 3.16 µM (inactive)
Ki [60]: 0.2 µM (active)
Ki [44]: 0.0398 µM (active)
Ki [45]: > 2.51 µM (inactive)
Ki [61]: 0.02 µM (active)
